# In patent US20210308173A1, “PHARMACEUTICAL COMPOSITION COMPRISING CYCLODEXTRIN COMPLEXES OF ANETHOLE TRITHIONE OR DERIVATIVES THEREOF” (priority 2018, published 2021):
# Experiment: Cyclodextrin-AOL solubility diagrams
# Type: physicochemical
# Description: A cyclodextrin-AOL solubility diagram would reveal the profile of the solubility curve of the AOL depending on the concentration of the cyclodextrin. The principle of this method is to add an excess of AOL to cyclodextrin solutions of increasing concentration, then to measure the amount of solubilized AOL. This method confirms the solubilization and evaluates more precisely the cyclodextrin solubilizing power, to define a stoichiometry of the complexes (molar and mass ratios) over the entire range of concentrations studied and to estimate the solubility limit and the stability of the mixtures.
# The solubilization was carried out with HP-β-CD and SBE-β-CD in a range of concentration ranging from 2.5% to 40% (m/m) at 20° C., 25° C. and 30° C. To check the stability of the solution, a storage test at 4° C. for 48 hours was carried out with the solutions previously prepared at 20° C.
# Aqueous solutions of cyclodextrin at in weight (m/m) concentrations of 2.5%, 5%, 10%, 20%, 30% and 40% were prepared in pure water. An excess of AOL was suspended in 2 mL each of these solutions. Each sample is shaken at 20° C., 25° C. or 30° C. for 4 hours (vortex at 1400 rpm). Each sample is centrifuged (12,500 g) and filtered through a 0.45 μm membrane.
# The solubility of AOL in each test solution was quantified by HPLC as detailed in Example 2.
# [1] = HP-β-CD 2.5% (w/w), 20° C. followed by 48 hours at 4° C.
# [2] = HP-β-CD 5% (w/w), 20° C. followed by 48 hours at 4° C.
# [3] = HP-β-CD 10% (w/w), 20° C. followed by 48 hours at 4° C.
# [4] = HP-β-CD 20% (w/w), 20° C. followed by 48 hours at 4° C.
# [5] = HP-β-CD 30% (w/w), 20° C. followed by 48 hours at 4° C.
# [6] = HP-β-CD 40% (w/w), 20° C. followed by 48 hours at 4° C.
# [7] = SBE-β-CD 2.5% (w/w), 20° C. followed by 48 hours at 4° C.
# [8] = SBE-β-CD 5% (w/w), 20° C. followed by 48 hours at 4° C.
# [9] = SBE-β-CD 10% (w/w), 20° C. followed by 48 hours at 4° C.
smiles,measurement,setting,value
"COc1ccc(-c2cc(=S)ss2)cc1 [AOL, 5-(4-methoxyphenyl)-3H-1,2-dithiole-3-thione]",CD/AOL molar ratio RM,"HP-β-CD 2.5% (w/w), 20° C.",200
same,CD/AOL weight ratio Rm,"HP-β-CD 2.5% (w/w), 20° C.",1866
same,CD/AOL molar ratio RM,[1],231
same,CD/AOL weight ratio Rm,[1],2155
same,CD/AOL molar ratio RM,"HP-β-CD 2.5% (w/w), 25° C.",137
same,CD/AOL weight ratio Rm,"HP-β-CD 2.5% (w/w), 25° C.",1282
same,CD/AOL molar ratio RM,"HP-β-CD 2.5% (w/w), 30° C.",103
same,CD/AOL weight ratio Rm,"HP-β-CD 2.5% (w/w), 30° C.",958
same,CD/AOL molar ratio RM,"HP-β-CD 5% (w/w), 20° C.",196
same,CD/AOL weight ratio Rm,"HP-β-CD 5% (w/w), 20° C.",1832
same,CD/AOL molar ratio RM,[2],213
same,CD/AOL weight ratio Rm,[2],1992
same,CD/AOL molar ratio RM,"HP-β-CD 5% (w/w), 25° C.",133
same,CD/AOL weight ratio Rm,"HP-β-CD 5% (w/w), 25° C.",1247
same,CD/AOL molar ratio RM,"HP-β-CD 5% (w/w), 30° C.",104
same,CD/AOL weight ratio Rm,"HP-β-CD 5% (w/w), 30° C.",973
same,CD/AOL molar ratio RM,"HP-β-CD 10% (w/w), 20° C.",175
same,CD/AOL weight ratio Rm,"HP-β-CD 10% (w/w), 20° C.",1631
same,CD/AOL molar ratio RM,[3],203
same,CD/AOL weight ratio Rm,[3],1898
same,CD/AOL molar ratio RM,"HP-β-CD 10% (w/w), 25° C.",128
same,CD/AOL weight ratio Rm,"HP-β-CD 10% (w/w), 25° C.",1192
same,CD/AOL molar ratio RM,"HP-β-CD 10% (w/w), 30° C.",94
same,CD/AOL weight ratio Rm,"HP-β-CD 10% (w/w), 30° C.",874
same,CD/AOL molar ratio RM,"HP-β-CD 20% (w/w), 20° C.",148
same,CD/AOL weight ratio Rm,"HP-β-CD 20% (w/w), 20° C.",1381
same,CD/AOL molar ratio RM,[4],197
same,CD/AOL weight ratio Rm,[4],1840
same,CD/AOL molar ratio RM,"HP-β-CD 20% (w/w), 25° C.",116
same,CD/AOL weight ratio Rm,"HP-β-CD 20% (w/w), 25° C.",1086
same,CD/AOL molar ratio RM,"HP-β-CD 20% (w/w), 30° C.",84
same,CD/AOL weight ratio Rm,"HP-β-CD 20% (w/w), 30° C.",784
same,CD/AOL molar ratio RM,"HP-β-CD 30% (w/w), 20° C.",132
same,CD/AOL weight ratio Rm,"HP-β-CD 30% (w/w), 20° C.",1235
same,CD/AOL molar ratio RM,[5],172
same,CD/AOL weight ratio Rm,[5],1607
same,CD/AOL molar ratio RM,"HP-β-CD 30% (w/w), 25° C.",112
same,CD/AOL weight ratio Rm,"HP-β-CD 30% (w/w), 25° C.",1044
same,CD/AOL molar ratio RM,"HP-β-CD 30% (w/w), 30° C.",70
same,CD/AOL weight ratio Rm,"HP-β-CD 30% (w/w), 30° C.",655
same,CD/AOL molar ratio RM,"HP-β-CD 40% (w/w), 20° C.",124
same,CD/AOL weight ratio Rm,"HP-β-CD 40% (w/w), 20° C.",1162
same,CD/AOL molar ratio RM,[6],159
same,CD/AOL weight ratio Rm,[6],1481
same,CD/AOL molar ratio RM,"HP-β-CD 40% (w/w), 25° C.",103
same,CD/AOL weight ratio Rm,"HP-β-CD 40% (w/w), 25° C.",958
same,CD/AOL molar ratio RM,"HP-β-CD 40% (w/w), 30° C.",66
same,CD/AOL weight ratio Rm,"HP-β-CD 40% (w/w), 30° C.",621
same,CD/AOL molar ratio RM,"SBE-β-CD 2.5% (w/w), 20° C.",91
same,CD/AOL weight ratio Rm,"SBE-β-CD 2.5% (w/w), 20° C.",853
same,CD/AOL molar ratio RM,[7],158
same,CD/AOL weight ratio Rm,[7],1479
same,CD/AOL molar ratio RM,"SBE-β-CD 2.5% (w/w), 25° C.",75
same,CD/AOL weight ratio Rm,"SBE-β-CD 2.5% (w/w), 25° C.",698
same,CD/AOL molar ratio RM,"SBE-β-CD 2.5% (w/w), 30° C.",60
same,CD/AOL weight ratio Rm,"SBE-β-CD 2.5% (w/w), 30° C.",559
same,CD/AOL molar ratio RM,"SBE-β-CD 5% (w/w), 20° C.",90
same,CD/AOL weight ratio Rm,"SBE-β-CD 5% (w/w), 20° C.",838
same,CD/AOL molar ratio RM,[8],155
same,CD/AOL weight ratio Rm,[8],1445
same,CD/AOL molar ratio RM,"SBE-β-CD 5% (w/w), 25° C.",71
same,CD/AOL weight ratio Rm,"SBE-β-CD 5% (w/w), 25° C.",668
same,CD/AOL molar ratio RM,"SBE-β-CD 5% (w/w), 30° C.",56
same,CD/AOL weight ratio Rm,"SBE-β-CD 5% (w/w), 30° C.",520
same,CD/AOL molar ratio RM,"SBE-β-CD 10% (w/w), 20° C.",85
same,CD/AOL weight ratio Rm,"SBE-β-CD 10% (w/w), 20° C.",798
same,CD/AOL molar ratio RM,[9],151
same,CD/AOL weight ratio Rm,[9],1414
same,CD/AOL molar ratio RM,"SBE-β-CD 10% (w/w), 25° C.",68
same,CD/AOL weight ratio Rm,"SBE-β-CD 10% (w/w), 25° C.",639
same,CD/AOL molar ratio RM,"SBE-β-CD 10% (w/w), 30° C.",54
same,CD/AOL weight ratio Rm,"SBE-β-CD 10% (w/w), 30° C.",507
same,CD/AOL molar ratio RM,"SBE-β-CD 20% (w/w), 20° C.",77
